Laboratory results reported in patent publication US8420824B2, “Substituted pyrazoles, compositions containing these, method of production and use” (Sanofi, priority 2006, dated 2013).
Structures can show the parent of a compound that is named as a salt.

How the values were obtained:
human KDR enzyme = molecular target: T1, human KDR enzyme (Homo sapiens, UniProt P35968); experiment: in vitro test of phosphorylation of substrate with the enzyme KDR (scintillation technique); format: biochemical; details: Table 1; unit inferred; read-out: KDR (concentration that inhibits 50% of the kinase activity)
T1 construct: The cytoplasmic domain of the human KDR enzyme was cloned in the form of a GST fusion; GST; made in house; host or cells: SF21 insect cells (baculovirus, pFastBac)
T1 sequence (P35968 786-1356 limits assumed): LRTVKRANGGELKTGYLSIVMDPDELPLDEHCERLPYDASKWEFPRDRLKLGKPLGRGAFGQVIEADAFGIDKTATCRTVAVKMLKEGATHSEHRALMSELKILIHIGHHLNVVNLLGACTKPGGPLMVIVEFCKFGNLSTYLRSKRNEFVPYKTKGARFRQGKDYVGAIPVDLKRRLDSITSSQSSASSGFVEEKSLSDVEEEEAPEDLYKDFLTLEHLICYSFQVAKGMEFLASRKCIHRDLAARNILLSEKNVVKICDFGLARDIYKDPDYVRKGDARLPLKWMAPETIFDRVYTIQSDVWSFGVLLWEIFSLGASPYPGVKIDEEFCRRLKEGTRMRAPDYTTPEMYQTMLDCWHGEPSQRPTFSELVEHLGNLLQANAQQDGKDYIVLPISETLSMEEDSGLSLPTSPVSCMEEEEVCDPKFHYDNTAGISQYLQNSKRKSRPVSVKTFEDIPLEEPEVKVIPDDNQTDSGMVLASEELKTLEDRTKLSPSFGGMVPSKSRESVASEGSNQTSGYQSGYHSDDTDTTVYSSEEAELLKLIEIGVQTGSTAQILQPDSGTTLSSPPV
Description: Determination of the Activity of the Compounds—Experimental Protocols 1. KDR
The inhibitory effect of the compounds is determined in an in vitro test of phosphorylation of substrate with the enzyme KDR via a scintillation technique (96-well plate, NEN).
The cytoplasmic domain of the human KDR enzyme was cloned in the form of a GST fusion in the pFastBac baculovirus expression vector. The protein was expressed in the SF21 cells and purified to about 60% homogeneity.
The KDR kinase activity is measured in 20 mM MOPS, 10 mM MgCl2, 10 mM MnCl2, 1 mM DTT, 2.5 mM EGTA, 10 mM b-glycerophosphate, pH=7.2, in the presence of 10 mM MgCl2, 100 μm Na3VO4, 1 mM NaF. 10 μl of the compound are added to 70 μl of kinase buffer containing 100 ng of KDR enzyme at 4° C. The reaction is initiated by adding 20 μl of solution containing 2 μg of substrate (SH2-SH3 fragment of PLCγ expressed in the form of a GST fusion protein), 2 μCi of γ^33P[ATP] and 2 μm of cold ATP. After incubation for 1 hour at 37° C., the reaction is stopped by adding 1 volume (100 μl) of 200 mM EDTA. The incubation buffer is removed, and the wells are washed three times with 300 μl of PBS. The radioactivity in each well is measured using a Top Count NXT radioactivity counter (Packard).
The background noise is determined by measuring the radioactivity in four different wells containing radioactive ATP and the substrate alone.
A total activity control is measured in four different wells containing all the reagents (γ^33P—[ATP], KDR and substrate PLCγ), but in the absence of compound.
The inhibition of the KDR activity with the compound of the invention is expressed as a percentage of inhibition of the control activity determined in the absence of compound.
Compound SU5614 (Calbiochem) (1 μM) is included in each plate as an inhibition control.

human Tie2 = molecular target: T2, human Tie2 (Homo sapiens, UniProt Q02763); experiment: test of phosphorylation of PLC with Tie2 (GST-Tie2); format: biochemical; details: Table 1; unit inferred; read-out: Tie2 (concentration that inhibits 50% of the kinase activity)
T2 construct: amino acids of the intracellular domain 776-1124; made in house; host or cells: baculovirus expression (pFastBacGT)
T2 sequence (Q02763 776-1124): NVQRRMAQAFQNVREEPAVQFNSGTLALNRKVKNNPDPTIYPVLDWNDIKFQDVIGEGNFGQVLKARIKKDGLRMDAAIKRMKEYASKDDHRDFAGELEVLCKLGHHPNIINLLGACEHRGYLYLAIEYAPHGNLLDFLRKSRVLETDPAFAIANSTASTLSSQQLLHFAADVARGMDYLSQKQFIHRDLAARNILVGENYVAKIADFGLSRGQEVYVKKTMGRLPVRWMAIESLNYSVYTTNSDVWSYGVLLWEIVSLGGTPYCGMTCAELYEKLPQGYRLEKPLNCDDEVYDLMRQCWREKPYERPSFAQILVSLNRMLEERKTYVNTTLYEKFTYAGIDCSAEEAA
Description: The coding sequence of human Tie2 corresponding to the amino acids of the intracellular domain 776-1124 was generated by PCR using the cDNA isolated from a human placenta as a model. This sequence was introduced into a pFastBacGT baculovirus expression vector in the form of a GST fusion protein.
The inhibitory effect of the molecules is determined in a test of phosphorylation of PLC with Tie2 in the presence of GST-Tie2 purified to about 80% homogeneity. The substrate is composed of the SH2-SH3 fragments of PLC expressed in the form of a GST fusion protein.
The kinase activity of Tie2 is measured in a MOPS 20 mM pH 7.2 buffer, containing 10 mM MgCl2, 10 mM MnCl2, 1 mM DTT, 10 mM of glycerophosphate. In a 96-well FlashPlate plate maintained on ice, a reaction mixture is deposited, composed of 70 μL of kinase buffer containing 100 ng of enzyme GST-Tie2 per well. Next, 10 μL of the test molecule diluted in DMSO to a maximum concentration of 10% are added. For a given concentration, each measurement is performed four times. The reaction is initiated by adding 20 μl of solution containing 2 μg of GST-PLC, 2 μm of cold ATP and 1 μCi of δ^33P[ATP]. After incubation for one hour at 37° C., the reaction is stopped by adding 1 volume (100 μl) of 200 mM EDTA. After removal of the incubation buffer, the wells are washed three times with 300 μL of PBS. The radioactivity is measured on a MicroBeta 1450 Wallac.
The inhibition of the Tie2 activity is calculated and expressed as a percentage of inhibition relative to the control activity determined in the absence of compound.

Row | SMILES | IC50 (human KDR enzyme) | IC50 (human Tie2)
1 | NC(=O)c1n[nH]cc1NCc1cccc(NC(=O)Nc2cc(F)cc(C(F)(F)F)c2)c1 [Example 7, 4-{[3-({[3-fluoro-5-(trifluoromethyl)phenyl]carbamoyl}amino)benzyl]-amino}-1H-pyrazole-3-carboxamide trifluoroacetate] | 0.0045 µM | 0.0727 µM
2 | NC(=O)c1n[nH]cc1NCc1cccc(NC(=O)Nc2cc(C(F)(F)F)ccc2F)c1 [Example 2a, 4-{[3-({[2-fluoro-5-(trifluoromethyl)phenyl]carbamoyl}amino)benzyl]-amino}-1H-pyrazole-3-carboxamide trifluoroacetate] | 0.008 µM | 0.02 µM
3 | COc1cc(NC(=O)Nc2cccc(CNc3c[nH]nc3C(N)=O)c2)cc(OC)c1 [Example 13, 4-[(3-{[(3,5-dimethoxyphenyl)carbamoyl]amino}benzyl)amino]-1H-pyrazole-3-carboxamide trifluoroacetate] | 0.0118 µM | 1.46 µM
4 | COC(=O)c1n[nH]cc1NCc1cccc(NC(=O)Nc2cc(C(F)(F)F)ccc2F)c1 [Example 32, Methyl 4-{[3-({[2-fluoro-5-(trifluoromethyl)phenyl]carbamoyl}amino)-benzyl]amino}-1H-pyrazole-3-carboxylate trifluoroacetate] | 0.0641 µM | 1 µM
5 | COC(=O)c1cccc(NC(=O)Nc2cccc(CNc3c[nH]nc3C(N)=O)c2)c1 [Example 9, Methyl 3-{[(3-{[(3-carbamoyl-1H-pyrazol-4-yl)-amino]methyl}phenyl)-carbamoyl]amino}benzoate trifluoroacetate] | 0.0218 µM | 4.51 µM
